Data as given in US20140329863A1 (priority 2011, published 2014).
Converted amounts (≈) assume the structure as drawn. Where two headings read alike, the source gives them in different places.

Legend:
[1] = "rat human hepatic microsomes", NADPH with UDPGA or PBS
[2] = Hepatic microsomal stability, rat
[3] = Hepatic microsomal stability, mouse; settings: for half-life at 1 μM: CD-1, mouse, pH 7.4
[4] = physchem
[5] = Multiple-dose (three-day) pharmacokinetic studies in FVB mice, drug in liquid diet; format: in vivo, mouse; settings: FVB, mouse, oral, 3 days in liquid diet, 40, 80, 130, 210 mg/kg/day
Protocol: Aminothiazole analog (e.g., 4.5 g of 27) was added to 15 mL of pure PEG400, vortexed and sonicated to ensure dissolution, then stored at −4° C. until needed. This highly concentrated PEG400 solution was subsequently diluted to final dosing concentrations, where the volume added was composed of homogenized solid rodent feed, cocoa (taste masking agent), and water. Wild-type FVB mice weigh ˜25 gm and typically drink 20 mL of liquid diet per day, allowing an estimate of daily drug consumption. A single dosing cohort consisted of three mice in a shared cage and liquid diet was provided at the start of the study in sufficient volume to last for the entire three-day trial (˜200 mL). At the end of the three-day dosing period, animals were euthanized by CO2, followed by collection of plasma (cardiac puncture) and removal of whole brain. Heparinized blood was centrifuged to separate plasma and both plasma and brain samples were stored at −80° C. prior to analysis. Plasma samples were prepared for analysis by precipitating proteins and reconstituting the remaining fraction with HPLC mobile phase. Brain samples were typically prepared by four-fold dilution with water after weighing, then homogenized using bead-beater or Polytron™ resulting in a highly concentrated solution that was further diluted with mobile phase as appropriate in preparation for bioanalytical analysis using LC-MS. Analysis was by LC-MS (Shimadzu dual-HPLC pumps, C18 analytical column, with detection using an Applied Biosystems API-4000 triple quadrupole mass spectrometer).
Ten compounds were selected from among the 34 2-AMTs for three-day multiple-dose PK studies at PO doses ranging from 40-210 mg/kg. Selection was based on diversity in potency, chemical structure, and a range of physicochemical properties. We used a liquid diet to facilitate easy drug administration, as well as serve as the daily source of all water and food. This approach was chosen because the mouse bioassay studies that would be used to assess drug effects on survival would be expected to run for 110 to 400 days, or more; gavage dosing for such a long period is not feasible and more stressful to mice. For the multiple-dose PK studies, 4.5 g of the 2-AMT analogs was added to 15 mL of pure PEG400, vortexed and sonicated to ensure dissolution, then stored at −4° C. until needed. This highly concentrated PEG400 solution was subsequently diluted to final dosing concentrations and added to the rodent liquid diet, cocoa (taste-masking agent), and water.
Wild-type FVB mice weigh ˜25 g and typically drink 20 mL of liquid diet per day, allowing an estimate of daily drug consumption. A single dosing cohort consisted of three mice in a shared cage and liquid diet was provided at the start of the study in sufficient volume (˜200 mL) to last for the entire three-day period. At the end of the dosing period, animals were euthanized by CO2, followed by collection of plasma (cardiac puncture) and removal of whole brain. Samples were processed and stored as described above for the 10 mg/kg single-dose studies.
Plasma and brain homogenate samples were extracted using a protein-precipitation method and analyzed by specific LC/MS/MS methods developed for each compound dosed in vivo. The analytical method accuracy and precision were monitored by analyzing quality control (QC) samples that were prepared by the same methods as the plasma or brain homogenate samples. The brain and plasma concentration data were used to calculate the maximal concentration (Cmax), area under the concentration-time curve (AUClast), and absolute bioavailability (% F) by noncompartmental analysis with sparse sampling performed using Phoenix WinNonlin 6.1 software (Pharsight, Mountain View, Calif.).

[6] = Multidose (three-day) pharmacokinetics in liquid diet in FVB mice; settings: FVB, mouse, in vivo
[7] = Hepatic microsomal stability, human; settings: for half-life at 1 μM: human, pH 7.4
[8] = test system: PrP^Sc in dividing ScN2a-cl3 cells; format: cell-based, mouse
[9] = test system: PrP^C in T98G cells; format: cell-based, human
[10] = test system: PrP^C in IMR32 cells; format: cell-based, human
[11] = test system: T98G cells; test: cells; format: cell-based, human; settings: calcein, T98G cells
[12] = test system: IMR32 cells; format: cell-based, human
[13] = cell culture media, plasma or biological fluid
[14] = brain, read-out: brain concentration
[15] = plasma, read-out: plasma concentration
[16] = 40 mg/kg, Plasma Concentration (Css), three-day dosing in liquid diet, plasma
[17] = 80 mg/kg, Brain Concentration (Css), three-day dosing in liquid diet, brain
[18] = 80 mg/kg, Plasma Concentration (Css), three-day dosing in liquid diet, plasma
[19] = 130 mg/kg, Brain Concentration (Css), three-day dosing in liquid diet, brain
[20] = 130 mg/kg, Plasma Concentration (Css), three-day dosing in liquid diet, plasma
[21] = 210 mg/kg, Brain Concentration (Css), three-day dosing in liquid diet, brain
[22] = 210 mg/kg, Plasma Concentration (Css), three-day dosing in liquid diet, plasma
[23] = Brain and plasma concentrations, 40, 80, 130 and 210 mg/kg/day for 3 days

In the case of `O=[N+]([O-])c1ccc(O)cc1` [4-Nitrophenol, reference compound], the “T1/2, control incubations” value [1] is reported as 0.333 h.
For `COc1ccc(-c2csc(Nc3cc4ccccc4cn3)n2)cc1OC` [IND46, [4-(3,4-Dimethoxy-phenyl)-thiazol-2-yl]-isoquinolin-3-yl-amine], the half-life at 1 μM ([2]; Sprague-Dawley, rat, […], pH 7.4) was greater than 1 h, the “% remaining after a 60-min incubation, Rat” value ([2]; […], 60-min incubation) was 61% and the “t1/2 Rat (extrapolated)” value ([2]; rat microsomes, * extrapolated) was 83* min. For the same compound, the half-life at 1 μM ([3]; liver microsomes) was 1.25 h, the half-life at 1 μM ([3]; mouse liver microsomes) was greater than 1 h and the “% remaining after a 60-min incubation, Mouse” value ([3]; mouse liver microsomes, 60-min incubation) was 58%. For the same compound, the solubility ([4]; FaSSIF) was 5 µM (≈ 1.82 µg/mL), the solubility [4, 13] was 174 µM (≈ 63.2 µg/mL) and the solubility ([4]; pH 2 (HCl) buffer, pH 2, simulated gastric fluid) was less than 1 µM. The solubility ([4]; pH 7.4 (phosphate) buffer, pH 7.4, aqueous buffer) was less than 1 µM, the concentration at 3 days [5, 14] was no more than 1000 nM and the concentration at 3 days [5, 15] was no more than 1000 nM. For the same compound, the concentration at 3 days ([6]; 40 mg/kg, Brain Concentration (Css), three-day dosing in liquid diet, brain) was 30 ± 30 nM, the concentration at 3 days [6, 16] was 50 ± 20 nM and the concentration at 3 days [6, 17] was 60 ± 70 nM. For the same compound, the concentration at 3 days [6, 18] was 60 ± 30 nM, the concentration at 3 days [6, 19] was 140 ± 40 nM and the concentration at 3 days [6, 20] was 80 ± 40 nM. For the same compound, the concentration at 3 days [6, 21] was 320 ± 110 nM, the concentration at 3 days [6, 22] was 140 ± 30 nM and the concentration at 3 days [6, 23] was no more than 1000 nM. The “% remaining after a 60-min incubation, Human” value ([7]; human liver microsomes, 60-min incubation) was 83%, the half-life at 1 μM ([7]; human liver microsomes) was greater than 1 h and the half-life at 1 μM ([7]; liver microsomes) was greater than 1 h. The “solubility in FaSSIF (in words)” value (fasted-state simulated intestinal fluid) was “lower solubility” and the “solubility at pH 2.0 (in words)” value (pH 2 (HCl) buffer) was “lower solubility”.
Compound `c1ccc2cc(Nc3nc(-c4cc5ccccc5o4)cs3)ncc2c1` [IND91, (4-Benzofuran-2-yl-thiazol-2-yl)-isoquinolin-3-yl-amine] has a solubility [4, 13] of 151 µM (≈ 51.9 µg/mL), a concentration at 3 days [5, 14] of no more than 1000 nM and a concentration at 3 days [5, 15] of no more than 1000 nM. It also gave a concentration at 3 days [6, 16] of 260 ± 130 nM, a concentration at 3 days [6, 17] of 190 ± 90 nM and a concentration at 3 days [6, 18] of 1550 ± 360 nM. It also gave a concentration at 3 days [6, 19] of 260 ± 120 nM, a concentration at 3 days [6, 20] of 1740 ± 310 nM and a concentration at 3 days [6, 21] of 280 ± 40 nM. It also gave a concentration at 3 days [6, 22] of 3060 ± 560 nM, a concentration at 3 days [6, 23] of no more than 1000 nM and an EC50 ([8]; AMT analogs tested for potency) of 923 nM. It also gave an EC50 ([8]; Table 29, 2-AMT analogs tested for potency, usually n = 3 or more) of 923 nM.
In the case of `CC(=O)N1CCc2c([nH]c3ccccc23)C1c1ccc(Cl)cc1` (centres unmarked) [IND-0017998], the “% Inhibition: SPC (T98G)” value [9] is reported as “MW: 324.8 % Inhibition: SPC (IMR32): 73 Calcein: 7 SPC (T98G): 74 Calcein: −19”, the “% Inhibition: SPC (IMR32)” value [10] is reported as “MW: 324.8 % Inhibition: SPC (IMR32): 73 Calcein: 7 SPC (T98G): 74 Calcein: −19” and the “% Inhibition: Calcein (T98G)” value [11] is reported as −19%. The “% Inhibition: Calcein (IMR32)” value [12] was 7%.
For `CCc1ccc(C2C(C#N)=C(N)Oc3cc(N(C)C)ccc32)cc1` (centres unmarked) [IND-0020681], the “% Inhibition: SPC (T98G)” value [9] was “MW: 319.4 % Inhibition: SPC (IMR32): 48 Calcein: 39 SPC (T98G): 43 Calcein: 21”, the “% Inhibition: SPC (IMR32)” value [10] was “MW: 319.4 % Inhibition: SPC (IMR32): 48 Calcein: 39 SPC (T98G): 43 Calcein: 21” and the “% Inhibition: Calcein (T98G)” value [11] was 21%. For the same compound, the “% Inhibition: Calcein (IMR32)” value [12] was 39%.
For `COc1ccccc1C(=O)N1CCN(c2cccc(Cl)c2)CC1` [IND-0021750], the “% Inhibition: SPC (T98G)” value [9] was “MW: 330.8 % Inhibition: SPC (IMR32): 44 Calcein: 25 SPC (T98G): 52 Calcein: 21”, the “% Inhibition: SPC (IMR32)” value [10] was “MW: 330.8 % Inhibition: SPC (IMR32): 44 Calcein: 25 SPC (T98G): 52 Calcein: 21” and the “% Inhibition: Calcein (T98G)” value [11] was 21%. The “% Inhibition: Calcein (IMR32)” value [12] was 25%.
For `Cc1cccc(Nc2nc(-c3ccncc3)cs2)c1` [IND-0022317], the “% Inhibition: SPC (T98G)” value [9] was “MW: 267.4 % Inhibition: SPC (IMR32): 87 Calcein: 35 SPC (T98G): 65 Calcein: 5”, the “% Inhibition: SPC (IMR32)” value [10] was “MW: 267.4 % Inhibition: SPC (IMR32): 87 Calcein: 35 SPC (T98G): 65 Calcein: 5” and the “% Inhibition: Calcein (T98G)” value [11] was 5%. The “% Inhibition: Calcein (IMR32)” value [12] was 35%.
